ChEMBL document CHEMBL1201862, “PubChem BioAssay data set” (2004)
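Step 1: Grow cells in 96-well plates. Step 2: Expose to compound for 48 hours at 5 concentrations. Step 3: Interpolate endpoints linearly; if unreached, use highest concentration. The concentration for 50% growth inhibition is given as GI50.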 Calls of active or inactive are those of the source. Rule as the data show it: active = GI50 up to about 1.1 µM and inactive = higher.

What was measured:
Experiment in all cases: NCI tumour cell line growth inhibition, 48 h
HOP-62 = test system: HOP-62
Hs-578T = test system: Hs-578T
HCT-116 = test system: HCT-116
SK-MEL-28 = test system: SK-MEL-28
OVCAR-3 = test system: OVCAR-3
SF-539 = test system: SF-539
HT-29 = test system: HT-29
SK-MEL-2 = test system: SK-MEL-2
HCT-15 = test system: HCT-15
LOX IMVI = test system: LOX IMVI
OVCAR-4 = test system: OVCAR-4
SK-MEL-5 = test system: SK-MEL-5
RXF 393 = test system: RXF 393
SK-OV-3 = test system: SK-OV-3
ACHN = test system: ACHN
SNB-19 = test system: SNB-19
NCI-H226 = test system: NCI-H226
OVCAR-5 = test system: OVCAR-5
M14 = test system: M14
MDA-N = test system: MDA-N

SMILES: COc1ccc(C)cc1NC(=S)N/N=C/c1ccco1
- GI50 (HOP-62): 48.3 µM (inactive)
- GI50 (Hs-578T): 66.7 µM (inactive)
- GI50 (HCT-116): 36.2 µM (inactive)
- GI50 (SK-MEL-28): 60.8 µM (inactive)
- GI50 (OVCAR-3): 49.2 µM (inactive)
- GI50 (SF-539): 27.6 µM (inactive)
- GI50 (HT-29): 29 µM (inactive)
- GI50 (SK-MEL-2): 16.6 µM (inactive)
- GI50 (HCT-15): 34.2 µM
- GI50 (LOX IMVI): 43.1 µM (inactive)
- GI50 (OVCAR-4): 37.4 µM (inactive)
- GI50 (SK-MEL-5): 14.7 µM (inactive)
- GI50 (RXF 393): 52.1 µM (inactive)
- GI50 (SK-OV-3): > 100 µM (inactive)
- GI50 (ACHN): > 100 µM (inactive)
- GI50 (SNB-19): 99.3 µM (inactive)
- GI50 (NCI-H226): 25.9 µM (inactive)
- GI50 (OVCAR-5): > 100 µM (inactive)
- GI50 (M14): 34.6 µM (inactive)
- GI50 (MDA-N): 18.6 µM (inactive)

SMILES: CCOC(=O)C(Cc1cc(OC)c(CC(C(=O)OCC)C(=O)OCC)cc1OC)C(=O)OCC
- GI50 (HOP-62): > 59.3 µM (inactive)
- GI50 (Hs-578T): > 100 µM (inactive)
- GI50 (HCT-116): > 100 µM (inactive)
- GI50 (SK-MEL-28): > 100 µM (inactive)
- GI50 (OVCAR-3): > 100 µM (inactive)
- GI50 (SF-539): 29.2 µM (inactive)
- GI50 (HT-29): > 100 µM (inactive)
- GI50 (SK-MEL-2): > 100 µM (inactive)
- GI50 (HCT-15): > 100 µM
- GI50 (LOX IMVI): > 100 µM (inactive)
- GI50 (OVCAR-4): > 100 µM (inactive)
- GI50 (SK-MEL-5): > 100 µM (inactive)
- GI50 (RXF 393): > 55.7 µM (inactive)
- GI50 (SK-OV-3): > 93.8 µM (inactive)
- GI50 (ACHN): > 100 µM (inactive)
- GI50 (SNB-19): > 68.5 µM (inactive)
- GI50 (NCI-H226): > 91.4 µM (inactive)
- GI50 (OVCAR-5): > 100 µM (inactive)
- GI50 (M14): > 100 µM (inactive)
- GI50 (MDA-N): > 100 µM (inactive)

SMILES: CCC(=O)NCCc1c[nH]c2ccc(OC)cc12
- GI50 (HOP-62): > 100 µM (inactive)
- GI50 (Hs-578T): > 100 µM (inactive)
- GI50 (HCT-116): > 100 µM (inactive)
- GI50 (SK-MEL-28): > 100 µM (inactive)
- GI50 (OVCAR-3): > 100 µM (inactive)
- GI50 (SF-539): > 100 µM (inactive)
- GI50 (HT-29): > 100 µM (inactive)
- GI50 (SK-MEL-2): > 100 µM (inactive)
- GI50 (HCT-15): > 100 µM
- GI50 (LOX IMVI): > 100 µM (inactive)
- GI50 (OVCAR-4): > 100 µM (inactive)
- GI50 (SK-MEL-5): > 100 µM (inactive)
- GI50 (RXF 393): > 100 µM (inactive)
- GI50 (SK-OV-3): > 100 µM (inactive)
- GI50 (ACHN): > 100 µM (inactive)
- GI50 (SNB-19): > 100 µM (inactive)
- GI50 (NCI-H226): > 100 µM (inactive)
- GI50 (OVCAR-5): > 100 µM (inactive)
- GI50 (M14): > 100 µM (inactive)
- GI50 (MDA-N): > 100 µM (inactive)

SMILES: Cc1csc2nc(-c3ccc([N+](=O)[O-])cc3)c(/C=N/N=C(N)N)n12
- GI50 (HOP-62): 1.7 µM (inactive)
- GI50 (Hs-578T): 2.09 µM (inactive)
- GI50 (HCT-116): 1.81 µM (inactive)
- GI50 (SK-MEL-28): 1.74 µM (inactive)
- GI50 (OVCAR-3): 2.49 µM (inactive)
- GI50 (SF-539): 1.85 µM (inactive)
- GI50 (HT-29): 1.76 µM (inactive)
- GI50 (SK-MEL-2): 1.43 µM (inactive)
- GI50 (HCT-15): 0.791 µM
- GI50 (LOX IMVI): 1.9 µM (inactive)
- GI50 (OVCAR-4): 1.53 µM (inactive)
- GI50 (SK-MEL-5): 1.91 µM (inactive)
- GI50 (RXF 393): 1.79 µM (inactive)
- GI50 (SK-OV-3): 1.69 µM (inactive)
- GI50 (ACHN): 1.28 µM (inactive)
- GI50 (SNB-19): 1.92 µM (inactive)
- GI50 (NCI-H226): 1.73 µM (inactive)
- GI50 (OVCAR-5): 1.52 µM (inactive)
- GI50 (M14): 1.85 µM (inactive)
- GI50 (MDA-N): 1.8 µM (inactive)
